Assay results taken from patent publication US7994160B2, “Pyridazine compounds as glycogen synthase kinase 3 inhibitors” (Abbott GmbH & Co. KG, priority 2005, dated 2011).
pIC50: −log10 of the molar value.

Tests used:
[1] = target: human Glycogen Synthase Kinase-3 beta (hGSK-3β) (Homo sapiens, UniProt P49841); assay: Biochemical hGSK-3Beta assay (33P-ATP phosphorylation of biotinylated peptide substrate); conditions: 10 μM ATP, 30 minutes at room temperature, read-out: GSK-3β IC50
Protocol: Methods—Biochemical hGSK-3Beta Assay
Compounds were tested for their ability to inhibit human Glycogen Synthase Kinase-3 beta (hGSK-3β) to phosphorylate biotin-[…](pS)EDEEE. Compounds were incubated with 0.5 μCi 33P-ATP, 10 μM ATP, 0.0125 U hGSK-3β (Upstate cell signaling solutions) and 1 μM substrate (biotin-[…](pS)EDEEE) in 50 mM HEPES, 10 mM MgCl2, […], 1 mM DTT, 0.0075% Triton, 2% DMSO (total volume 50 μL) for 30 minutes at room temperature. The incubation was stopped by addition of an equal volume of 100 mM EDTA, 4M NaCl. 80 μL of this mixture was added to streptavidin-coated Flashplates (PerkinElmer). Following a wash step, 33P incorporation was quantified on a MicroBeta microplate liquid scintillation counter (PerkinElmer). IC50's were determined by fitting a sigmoidal dose-response curve to the counts obtained at the different concentrations in GraphPad Prism.

[2] = test system: β-catenin-modulated gene transcription; assay: β-Catenin reporter-gene assay (LEF/TCF TOPFLASH/FOPFLASH luciferase); type: cell-based; conditions: human neuroblastoma cells, 24 h; symbols +/++/+++ not defined
Protocol: Methods—β-Catenin Reporter-Gene Assay
Compounds were tested for their ability to modulate β-catenin-modulated gene transcription in a LEF/TCF (T-cell factor) reporter gene assay. […] human neuroblastoma cells were transiently transfected with 80 ng/well TOPFLASH plasmid (Up-state cell signaling solutions) containing two sets of three copies of the TCF binding site upstream of the Thymidine Kinase minimal promoter and firefly Luciferase open reading frame or with 80 ng/well FOPFLASH plasmid (Upstate cell signaling solutions) containing three copies of a mutated TCF binding site upstream of the Thymidine Kinase minimal promoter and firefly Luciferase open reading frame. In addition all cells were transiently transfected with the 20 ng/well pRL-TK plasmid (Promega) containing the herpes simplex virus thymidine kinase promoter to provide low to moderate levels of Renilla Luciferase expression. Transfection medium was exchanged for serum-free medium containing the test substance and incubated for 24 h at 37 degreed C. The incubation was stopped and quantified using the Dual Glo Luciferase Assay (Promega) as indicated and quantified on a Pherastar reader (BMG).
Firefly Luciferase activity was normalised for Renilla Luciferase activity per well. Subsequently, the normalised TOPFLASH response was compared to the normalised FOPFLASH response, thus giving the LEF/TCF specific signal. […]

Sequence of human Glycogen Synthase Kinase-3 beta (hGSK-3β) (P49841 whole entry): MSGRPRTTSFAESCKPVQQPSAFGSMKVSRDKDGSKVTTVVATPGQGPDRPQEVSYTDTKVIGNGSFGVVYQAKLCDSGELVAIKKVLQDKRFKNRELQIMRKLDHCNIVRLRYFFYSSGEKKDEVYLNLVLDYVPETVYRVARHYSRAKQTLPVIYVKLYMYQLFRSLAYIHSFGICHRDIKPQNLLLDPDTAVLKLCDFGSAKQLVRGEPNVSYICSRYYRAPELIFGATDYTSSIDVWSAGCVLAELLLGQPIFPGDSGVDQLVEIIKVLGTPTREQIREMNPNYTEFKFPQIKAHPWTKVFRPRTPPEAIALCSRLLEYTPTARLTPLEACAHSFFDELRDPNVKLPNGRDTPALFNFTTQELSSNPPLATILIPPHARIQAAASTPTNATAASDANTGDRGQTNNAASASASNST

pIC50 [1] | Structure (SMILES) | Cellular Activity in GSK-3β TOPFLASH assay [2]
6.20 | O=C1Nc2cc([N+](=O)[O-])ccc2Nc2nnc(Cl)cc21 [Example 4, 2-Chloro-8-nitro-5,10-dihydro-3,4,5,10-tetraaza-dibenzo[a,d]cyclohepten-11-one] | –
4.24 | NC(=O)c1cccc2c1Nc1ccccc1C(=O)N2 [Example 6, 11-Oxo-10,11-dihydro-5H-dibenzo[b,e][1,4]diazepine-6-carboxylic acid amide, reference compound] | INACTIVE
7.00 | O=C1Nc2ncccc2Nc2nnc(Cl)cc21 [Example 7, 8-Chloro-5,10-dihydro-1,5,6,7,11-pentaaza-dibenzo[a,d]cyclohepten-11-one] | –
7.35 | C=Cc1cc2c(nn1)Nc1ccccc1NC2=O [Example 10, 2-Vinyl-5,10-dihydro-3,4,5,10-tetraaza-dibenzo[a,d]cyclohepten-11-one] | –
